Tests used:
[1] = test system: EL-4 tumor cells; experiment: Cannabinoid-induced apoptosis in vitro (TUNEL or annexin V/PI); format: cell-based, murine; conditions: for induction of apoptosis (annexin/PI) compared with controls: 3 μM
Procedure: (§1) The cells were washed twice with PBS. […] Five thousand cells were analyzed per sample.

[2] = test system: Jurkat; experiment: Cannabinoid-induced apoptosis in vitro (TUNEL); format: cell-based, human; conditions: 5 μM JWH-015, serum-free medium, 24 hours
Procedure: as §1

[3] = test system: Molt-4; experiment: Cannabinoid-induced apoptosis in vitro (TUNEL); format: cell-based, human; set-up: induction of apoptosis (TUNEL): dose or concentration left out as unconfirmed
Procedure: as §1

[4] = test system: Jurkat; experiment: Tumor-cell viability in vitro, trypan blue dye exclusion; format: cell-based, human
Procedure: (§2) Measurement of the effect of cannabinoid receptor aponistson tumor-cell viability in vitro: Tumor cells were adjusted to 1×10^6 cells/mL in medium containing 5% FCS or serum-free medium. The cells (1×10^6) were cultured in 24-well plates in 2 mL medium in the presence or absence of various concentrations of cannabinoid receptor agonists for 2 to 24 hours. Finally, the cells were harvested and washed twice in PBS, and the viable cell count was determined by trypan blue dye exclusion.

[5] = test system: Molt-4; experiment: as above; format: cell-based, human; conditions: Molt-4, serum-free medium, 24 hours
Procedure: as §2

[6] = cited from earlier work
[7] = test system: EL-4 tumor cells; experiment: Tumor-cell viability in vitro, trypan blue dye exclusion; format: cell-based, murine; set-up: time required to induce tumor-cell killing: dose or concentration left out as unconfirmed
Procedure: as §2

[8] = test system: LSA tumor cells; experiment: as above; format: cell-based, murine; conditions: medium with 5% FCS, 24 hours
Procedure: as §2

[9] = test system: P815 tumor cells; experiment: as above; format: cell-based, murine; conditions: P815, medium with 5% FCS, 24 hours
Procedure: as §2

[10] = test system: LSA tumor cells; experiment: Cannabinoid-induced apoptosis in vitro (TUNEL); format: cell-based, murine; conditions: 5% FCS, 24 hours, 20 μM THC (printed 201M)
Procedure: as §1

[11] = test system: P815 tumor cells; experiment: Cannabinoid-induced apoptosis in vitro (TUNEL); format: cell-based, murine; conditions: P815, 5% FCS, 24 hours, 20 μM THC (printed 201M)
Procedure: as §1

[12] = test system: EL-4 tumor cells; experiment: Tumor-cell viability and induction of apoptosis in vivo in EL-4 tumor-bearing mice; set-up: species or system C57BL/6 mice
Procedure: Measurement of tumor-cell viability and induction of apoptosis in vivo: Groups of 5 C57BL/6 mice were injected intraperitoneally (IP) with 1×10^6 EL-4 tumor cells suspended in 0.2 mL PBS. The control mice received PBS alone. Ten days later, the mice were injected with various concentrations of THC (0, 1, 3, or 5 mg/kg […]). The mice were killed 24 hours later and the EL-4 tumor cells were harvested from the peritoneal cavity by injecting 5.0 mL PBS, followed by aspiration of the peritoneal fluid from the cavity. The contaminating red blood cells were removed with red blood lysing solution (Sigma), and the tumor cells were washed twice with PBS. The number of viable cells was determined by trypan blue dye exclusion, and apoptosis was determined using the TUNEL assay. The presence of tumor cells in the peritoneal cavity was confirmed by the ability of the cells to grow in vitro and by the phenotype (Thyl-, CD4-, CD8-).

[13] = test system: EL-4 tumor cells; experiment: Survival of EL-4-challenged mice; format: in vivo, C57BL/6 mice; conditions: 5 mg/kg IP daily for 14 days
Procedure: Effect of THC on survival of EL-4-challenged mice: Groups of 8 C57BL/6 mice were injected […] with 1×10^6 EL-4 tumor cells in a volume of 100 μL PBS. One day following tumor injection, the mice received daily IP injections for 14 days with 5 mg/kg THC in a volume of 500 μL PBS. Control mice received injections with the vehicle control. The mice were observed daily for signs of morbidity and were euthanized. Mice that survived for more than 60 days were rechallenged with live EL-4 cells (1×10^6) and tested for their ability to reject tumor and survive.

[14] = test system: Sup-T1; experiment: Tumor-cell viability in vitro, trypan blue dye exclusion; format: cell-based, human; conditions: Sup-T1, 5 μM THC, 4 hours
Procedure: as §2

[15] = test system: primary ALL cells; experiment: Viability of primary ALL cells in vitro, trypan blue dye exclusion; format: cell-based, human; conditions: ALL no. 1 and ALL no. 2, serum-free medium, 2 hours
Text: Primary leukemic cells: Peripheral blood samples were obtained from 2 patients diagnosed with ALL. The samples were referred to as ALL no. 1 and ALL no. 2. ALL no. 1 was obtained from a patient newly diagnosed with common acute lymphoblastic leukemia antigen (CALLA) (CD10)-positive non-B, non-T ALL. ALL no. 2 was obtained from a patient newly diagnosed with terminal deoxynucleotidyl transferase (TdT)-positive T-cell ALL. Informed consent was obtained following institutional guidelines and approval was obtained from the institutional review board of Virginia Commonwealth University. Consent was provided according to the Declaration of Helsinki.
The content of the lymphoblasts was greater than 70% as determined by flow cytometric analysis. Mononuclear cells were isolated by Ficoll-Paque density gradient centrifugation. In this study, the samples were cryopreserved and stored in liquid nitrogen before use. Viability after thawing was determined by trypan blue dye exclusion and was greater than 90%.
Measurement of the effect of cannabinoid receptor aponistson tumor-cell viability in vitro: Tumor cells were adjusted to 1×10^6 cells/mL in medium containing 5% FCS or serum-free medium. […] Finally, the cells were harvested and washed twice in PBS, and the viable cell count was determined by trypan blue dye exclusion.

[16] = test system: tumor cells; experiment: Dose of THC that induced apoptosis in vitro, with and without serum; format: cell-based
Procedure: as §1

[17] = rats injected with 50 mg/kg, within 10 hours of administration; cited from earlier work
[18] = test system: thymus and spleen; experiment: Cellularity of thymus and spleen after administration to C57BL/6 mice; conditions: resulted from apoptosis in immune cells
[19] = biological target: CB2 receptors (Homo sapiens, UniProt P34972); conditions: human tumor cells, pretreatment with the CB2 antagonist
Procedure: Next, the cells were harvested, washed twice in PBS, and analyzed for the induction of apoptosis using either the terminal deoxynucleotidyl transferase-mediated end labeling (TUNEL) method or annexin V/propidium iodide (PI) method, as described elsewhere (references 14,15 incorporated herein by reference). To detect apoptosis using the TUNEL method, we washed the cells twice with PBS and fixed them with 4% p-formaldehyde for 30 minutes at room temperature. The cells were next washed with PBS, permeabilized on ice for 2 minutes, and incubated with fluorescein isothiocyanate-dUTP and TdT (Boehringer Mannheim, Indianapolis, Ind.) for 1 hour at 37° C. and 5% CO2. To detect apoptosis using the annexin V/PI method, we washed the cells twice with PBS and stained them with annexin V and PI for 20 minutes at room temperature. The cells were washed twice with PBS. The levels of apoptosis in both the TUNEL and annexin/PI assays were determined by measuring the fluorescence of the cells by flow cytometric analysis. Five thousand cells were analyzed per sample.

[20] = EL-4, serum-free medium, 4 hours
[21] = EL-4, serum-free medium, 5 μM, 4 hours
[22] = 5 mg/kg IP on day 10, harvest 24 hours later

Sequence of CB2 receptors (P34972 whole entry): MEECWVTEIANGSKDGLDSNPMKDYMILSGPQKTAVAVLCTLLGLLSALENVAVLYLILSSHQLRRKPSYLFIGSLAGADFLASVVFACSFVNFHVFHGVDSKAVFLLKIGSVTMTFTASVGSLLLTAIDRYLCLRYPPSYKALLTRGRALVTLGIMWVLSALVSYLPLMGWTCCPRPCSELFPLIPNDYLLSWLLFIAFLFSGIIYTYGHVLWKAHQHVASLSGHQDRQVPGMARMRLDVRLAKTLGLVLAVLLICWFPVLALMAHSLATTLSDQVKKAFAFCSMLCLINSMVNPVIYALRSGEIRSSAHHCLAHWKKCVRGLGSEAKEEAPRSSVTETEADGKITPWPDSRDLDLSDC

CCCCCCC(C)(C)c1cc(O)c2c(c1)OC(C)(C)[C@@H]1CC=C(CO)C[C@@H]21 [HU-210]
induction of apoptosis (annexin/PI) compared with controls [1, 20]: significant increase in apoptosis

CCCn1c(C)c(C(=O)c2cccc3ccccc23)c2ccccc21 [JWH-015, (2-Methyl-1-propyl-1H-indol-3-yl)-1-naphthalenylmethanone]
induction of apoptosis (TUNEL) [2]: significant induction of apoptosis
induction of apoptosis (TUNEL) ([3]; Molt-4, JWH-015, serum-free medium, 24 hours): significant induction of apoptosis
concentration leading to a significant decrease in the number of viable tumor cells ([4]; serum-free medium, 24 hours): ≥ 5 µM
concentration leading to a significant decrease in the number of viable tumor cells [5]: ≥ 5 µM
soluble to, in DMSO ([6]; DMSO): 10 mM
soluble to, in ethanol ([6]; ethanol): 25 mM

CCCCCc1cc(O)c2c(c1)OC(C)(C)[C@@H]1CCC(C)=C[C@@H]21 [THC, Delta-9-tetrahydrocannabinol]
concentration leading to a significant reduction in the number of viable cells ([7]; EL-4, medium with 5% FCS, 24 hours): ≥ 10 µM
time required to induce tumor-cell killing ([7]; EL-4, serum-free medium): 4 h
concentration leading to a significant decrease in tumor-cell viability [7, 20]: 5 µM
concentration causing a significant decrease in tumor-cell viability ([7]; EL-4, serum-free medium, 12 hours): 3 µM
concentration leading to a significant reduction in the number of viable cells [8]: ≥ 10 µM
concentration leading to a significant reduction in the number of viable cells [9]: ≥ 10 µM
induction of apoptosis (TUNEL) ([1]; EL-4, 5% FCS, 24 hours, 20 μM THC (printed 201M)): induced significant apoptosis
induction of apoptosis (annexin/PI) compared with controls [1, 20]: significant increase in apoptosis
induction of apoptosis (TUNEL and annexin/PI) [1, 21]: increase in the induction of apoptosis
induction of apoptosis (TUNEL) [10]: induced significant apoptosis
induction of apoptosis (TUNEL) [11]: induced significant apoptosis
viable tumor-cell number in the peritoneal cavity ([12]; 1 mg/kg IP on day 10, harvest 24 hours later): failed to cause a decrease in cellularity
viable tumor-cell number in the peritoneal cavity ([12]; 3 mg/kg IP on day 10, harvest 24 hours later): effective
proportion of tumor cells showing apoptosis (TUNEL) [12, 22]: 77.3%
viable tumor-cell number in the peritoneal cavity [12, 22]: effective
survival of EL-4 tumor-bearing mice [13]: significant increase in survival
mice that survived the tumor challenge / were cured ([13]; listed as TEC): approximately 25%
number of viable tumor cells ([4]; 5 μM THC, 4 hours): dramatic reduction in the number of viable tumor cells
number of viable tumor cells [14]: dramatic reduction in the number of viable tumor cells
concentration resulting in significant reduction in viability [15]: ≥ 5 µM
dose that induced apoptosis in vitro ([16]; serum-containing medium): ≥ 10 µM
dose that induced apoptosis in vitro ([16]; serum-free medium): ≥ 3 µM
THC in the serum [17]: 10 µM
cellularity of the thymus and spleen [18]: marked decrease in the cellularity of the thymus and spleen

Cc1c(C(=O)c2cccc3ccccc23)c2cccc3c2n1[C@H](CN1CCOCC1)CO3 [WIN55212]
induction of apoptosis (annexin/PI) compared with controls [1, 20]: no significant effect

CCCCC/C=C\C/C=C\C/C=C\C/C=C\CCCC(=O)NCCO [anandamide]
induction of apoptosis (TUNEL) [1, 21]: slight increase in apoptosis
induction of apoptosis (TUNEL) ([1]; EL-4, serum-free medium, 10 μM, 4 hours): significant levels of apoptosis
concentration leading to significant levels of apoptosis (TUNEL) ([3]; Molt-4, serum-free medium, 4 hours): ≥ 20 µM

SR144528
effect of pretreatment on THC-induced apoptosis [19]: partially reversed

— patent US20040259936A1, “Treatment of neoplasia” (priority 2001, published 2004)
